{"source": "ChEMBL document CHEMBL2040830", "about": "“Makomotindoline from Makomotake, Zizania latifolia infected with Ustilago esculenta” (2012)", "key": {"C6 [1]": {"tested_on": "C6", "experiment": "Cytotoxicity against rat C6 cells assessed as cell death after 24 to 48 hrs by MTT assay", "format": "functional, cell-based"}, "C6 [2]": {"tested_on": "C6", "experiment": "Growth stimulation of rat C6 cells at 100 uM after 48 hrs by MTT assay relative to control", "format": "functional"}, "C6 [3]": {"tested_on": "C6", "experiment": "Growth stimulation of rat C6 cells at 100 uM after 24 hrs by MTT assay relative to control", "format": "functional"}, "C6 [4]": {"tested_on": "C6", "experiment": "Cytotoxicity against rat C6 cells assessed as decrease in cell number at 100 uM after 48 hrs by MTT assay", "format": "functional", "design": "scale not given: the % may be the effect or the level left"}, "C6 [5]": {"tested_on": "C6", "experiment": "Cytotoxicity against rat C6 cells assessed as cell death at 10 to 100 uM after 48 hrs by MTT assay", "format": "functional, cell-based"}, "C6 [6]": {"tested_on": "C6", "experiment": "Cytotoxicity against rat C6 cells assessed as decrease in cell number at 100 uM after 24 hrs by MTT assay", "format": "functional", "design": "scale not given: the % may be the effect or the level left"}, "C6 [7]": {"tested_on": "C6", "experiment": "Cytotoxicity against rat C6 cells assessed as decrease in cell number at 10 uM after 24 hrs by MTT assay", "format": "functional", "design": "scale not given: the % may be the effect or the level left"}}, "note": "Calls of active or inactive are those of the source. No cut-off for these calls is given here.", "data": [{"molecule": "OC[C@H]1O[C@@H](N2c3ccccc3[C@]3(O)CCO[C@H]23)[C@H](O)[C@@H](O)[C@@H]1O", "values": [{"measurement": "Activity", "setting": "C6 [1]", "result": "inactive"}]}, {"molecule": "O[C@@]12CCO[C@@H]1Nc1ccccc12", "values": [{"measurement": "Activity", "setting": "C6 [2]", "result": 114.2, "unit": "%"}, {"measurement": "Activity", "setting": "C6 [3]", "result": 112, "unit": "%"}]}, {"molecule": "OC[C@@H]1O[C@H](N2c3ccccc3[C@]3(O)CCO[C@H]23)[C@@H](O)[C@H](O)[C@H]1O", "values": [{"measurement": "Activity", "setting": "C6 [4]", "result": 87.9, "unit": "%"}, {"measurement": "Activity", "setting": "C6 [5]", "result": "inactive"}, {"measurement": "Activity", "setting": "C6 [6]", "result": 83.9, "unit": "%"}, {"measurement": "Activity", "setting": "C6 [7]", "result": 92.4, "unit": "%"}]}]}
